In ChEMBL document CHEMBL5550134, “An insight into the pharmacology of cysteine/methionine containing peptide drugs” (Eur J Med Chem, 2024):
Numbered stars: 1 amine (or outer) side, 2 acyl side, 3 side chain; on linkers, the order of the positions; unused ones are H or OH. Bridge positions count the residues as written; N and C are the ends. Square brackets hold non-standard residues; d marks the D form. Peptide text beside a SMILES is read from it. * marks the point of attachment. 2Nal = N[C@@H](Cc1ccc2ccccc2c1)C(=O)O; Benzoyl(4-F) = O=C(c1ccc(F)cc1)*; Cit = NC(=O)NCCC[C@H](N)C(=O)O; X1 = O=C(CCC[*:2])[*:1]

Tests used:
[1] = Half life in human; assay type: ADME
[2] = Plasma protein binding in human; assay type: ADME, cell-free; conditions: read-out: PPB (converted)
[3] = Half life in human plasma; assay type: ADME, cell-free
[4] = Half life in iv dosed human; assay type: ADME, organism-based; conditions: in vivo
[5] = Subcutaneous bioavailability in human; conditions: in vivo, sc
[6] = Half life in human at 0.5 mg/kg, iv; assay type: ADME, organism-based; conditions: in vivo
[7] = Terminal half life in human; assay type: ADME; conditions: read-out: beta t1/2 (converted)
[8] = Plasma protein binding in human at 0.2 ug/ml; assay type: ADME, cell-free; conditions: at 0.2 µg/mL, read-out: PPB
[9] = Terminal elimination half life in human; assay type: ADME
[10] = Half life in human at 0.3 mg/kg, iv; assay type: ADME, organism-based; conditions: in vivo
[11] = Oral bioavailability in human; assay type: ADME, organism-based; conditions: in vivo

`CC[C@H](C)[C@H](NC(=O)[C@H](CO)NC(=O)[C@H](CC(N)=O)NC(=O)[C@H](CC(C)C)NC(=O)[C@H](Cc1ccc(O)cc1)NC(=O)[C@H](CCCCN)NC(=O)[C@H](CCCCN)NC(=O)[C@@H](NC(=O)[C@H](C)NC(=O)[C@H](CCSC)NC(=O)[C@H](CCC(N)=O)NC(=O)[C@H](CCCCN)NC(=O)[C@H](CCCN=C(N)N)NC(=O)[C@H](CC(C)C)NC(=O)[C@H](CCCN=C(N)N)NC(=O)[C@@H](NC(=O)[C@H](Cc1ccc(O)cc1)NC(=O)[C@H](CC(N)=O)NC(=O)[C@H](CC(=O)O)NC(=O)[C@@H](NC(=O)[C@H](Cc1ccccc1)NC(=O)[C@@H](NC(=O)[C@H](C)NC(=O)[C@H](CC(=O)O)NC(=O)[C@H](CO)NC(=O)[C@@H](N)Cc1c[nH]cn1)C(C)C)[C@@H](C)O)[C@@H](C)O)C(C)C)C(=O)N[C@@H](CC(C)C)C(=O)N[C@@H](CC(N)=O)C(N)=O` showed a half-life [1] of 1 min.
With `N=C(N)NCCC[C@H](NC(=O)[C@@H]1CSSC[C@H](NC(=O)[C@H](Cc2ccc3ccccc3c2)NC(=O)[C@H](CCCNC(=N)N)NC(=O)[C@H](CCCNC(=N)N)NC(=O)c2ccc(F)cc2)C(=O)N[C@@H](Cc2ccc(O)cc2)C(=O)N[C@@H](CCCNC(N)=O)C(=O)N[C@@H](CCCCN)C(=O)N[C@@H](CCCCN)C(=O)N2CCC[C@H]2C(=O)N[C@@H](Cc2ccc(O)cc2)C(=O)N[C@@H](CCCNC(=N)N)C(=O)N[C@@H](CCCNC(N)=O)C(=O)N1)C(N)=O` ({Benzoyl(4-F)}-RR[2Nal]CY[Cit]KKPYR[Cit]CR-NH2; disulfide 4-13) the half-life [1] was 120 min and the fraction unbound [2] was under 0.01.
For `CC[C@H](C)[C@@H]1NC(=O)[C@H](Cc2ccc(OC)cc2)NC(=O)CCCSC[C@@H](C(=O)N2CCC[C@H]2C(=O)N[C@@H](CC(C)C)C(=O)NCC(N)=O)NC(=O)[C@H](CC(N)=O)NC(=O)[C@H](CCC(N)=O)NC1=O` [CARBETOCIN] (Y(Me)IQNCPLG-NH2; linker N-5 via X1), the half-life [3] was 40 min.
`CC(=O)N[C@H](CSSC[C@H](N)C(=O)O)C(=O)N[C@H](C)C(=O)N[C@H](CCCNC(=N)N)C(=O)N[C@H](CCCNC(=N)N)C(=O)N[C@H](CCCNC(=N)N)C(=O)N[C@H](C)C(=O)N[C@H](CCCNC(=N)N)C(N)=O` [ETELCALCETIDE] showed a half-life [4] of 3 days.
Work on `NC(N)=NCCC[C@@H](N)C(=O)N[C@@H](CCCN=C(N)N)C(=O)N1CCC[C@H]1C(=O)N1C[C@H](O)C[C@H]1C(=O)NCC(=O)N[C@@H](Cc1cccs1)C(=O)N[C@@H](CO)C(=O)N1Cc2ccccc2C[C@@H]1C(=O)N1[C@H](C(=O)N[C@@H](CCCN=C(N)N)C(=O)O)C[C@@H]2CCCC[C@@H]21` [ICATIBANT] yielded a half-life [1] of 84 min and a subcutaneous bioavailability [5] of 97%.
With `C/C=C1\NC(=O)[C@H]2CSSCC/C=C/[C@H](CC(=O)N[C@H](C(C)C)C(=O)N2)OC(=O)[C@H](C(C)C)NC1=O` [ROMIDEPSIN] the half-life [6] was 180 min.
For `CC(=O)N[C@@H](CCCNC(=N)N)C(=O)N[C@H]1CSSC[C@@H](C(N)=O)NC(=O)[C@H](Cc2c[nH]c3ccccc23)NC(=O)[C@H](CCCNC(=N)N)NC(=O)[C@@H](Cc2ccccc2)NC(=O)[C@H](Cc2c[nH]cn2)NC(=O)[C@@H](C)NC1=O` [SETMELANOTIDE], the half-life [1] was 660 min and the fraction unbound [2] was 0.209.
Work on `CC[C@H](C)[C@H](NC(=O)[C@H](Cc1ccccc1)NC(=O)[C@H](CC(=O)O)NC(=O)[C@H](CCCNC(=N)N)NC(=O)[C@H](C)NC(=O)[C@H](C)NC(=O)[C@H](CC(C)C)NC(=O)[C@H](CC(N)=O)NC(=O)[C@H](CC(=O)O)NC(=O)[C@H](CC(C)C)NC(=O)[C@@H](NC(=O)[C@@H](NC(=O)[C@H](CC(N)=O)NC(=O)[C@H](CCSC)NC(=O)[C@H](CCC(=O)O)NC(=O)[C@H](CC(=O)O)NC(=O)[C@H](CO)NC(=O)[C@H](Cc1ccccc1)NC(=O)[C@H](CO)NC(=O)CNC(=O)[C@H](CC(=O)O)NC(=O)CNC(=O)[C@@H](N)Cc1c[nH]cn1)[C@@H](C)O)[C@@H](C)CC)C(=O)N[C@@H](CC(N)=O)C(=O)N[C@@H](Cc1c[nH]c2ccccc12)C(=O)N[C@@H](CC(C)C)C(=O)N[C@H](C(=O)N[C@@H](CCC(N)=O)C(=O)N[C@H](C(=O)N[C@@H](CCCCN)C(=O)N[C@H](C(=O)N[C@H](C(=O)N[C@@H](CC(=O)O)C(=O)O)[C@@H](C)O)[C@@H](C)CC)[C@@H](C)O)[C@@H](C)CC` [TEDUGLUTIDE] yielded a half-life [7] of 78 min and a subcutaneous bioavailability [5] of 88%.
In the case of `CC[C@H](C)[C@H](NC(=O)[C@H](CCC(=O)O)NC(=O)[C@H](CO)NC(=O)[C@@H](NC(=O)[C@@H](N)CO)C(C)C)C(=O)N[C@@H](CCC(N)=O)C(=O)N[C@@H](CC(C)C)C(=O)N[C@@H](CCSC)C(=O)N[C@@H](Cc1cnc[nH]1)C(=O)N[C@@H](CC(N)=O)C(=O)N[C@@H](CC(C)C)C(=O)NCC(=O)N[C@@H](CCCCN)C(=O)N[C@@H](Cc1cnc[nH]1)C(=O)N[C@@H](CC(C)C)C(=O)N[C@@H](CC(N)=O)C(=O)N[C@@H](CO)C(=O)N[C@@H](CCSC)C(=O)N[C@@H](CCC(=O)O)C(=O)N[C@@H](CCCN=C(N)N)C(=O)N[C@H](C(=O)N[C@@H](CCC(=O)O)C(=O)N[C@@H](Cc1c[nH]c2ccccc12)C(=O)N[C@@H](CC(C)C)C(=O)N[C@@H](CCCN=C(N)N)C(=O)N[C@@H](CCCCN)C(=O)N[C@@H](CCCCN)C(=O)N[C@@H](CC(C)C)C(=O)N[C@@H](CCC(N)=O)C(=O)N[C@@H](CC(=O)O)C(=O)N[C@H](C(=O)N[C@@H](Cc1cnc[nH]1)C(=O)N[C@@H](CC(N)=O)C(=O)N[C@@H](Cc1ccccc1)C(=O)O)C(C)C)C(C)C` [TERIPARATIDE], the half-life [1] is reported as 60 min and the subcutaneous bioavailability [5] is reported as 95%.
For `NCCCC[C@H](NC(=O)[C@@H]1CCCN1C(=O)[C@@H]1CSSC[C@H](NC(=O)CNC(=O)CNC(=O)CN)C(=O)N[C@@H](Cc2ccc(O)cc2)C(=O)N[C@@H](Cc2ccccc2)C(=O)N[C@@H](CCC(N)=O)C(=O)N[C@@H](CC(N)=O)C(=O)N1)C(=O)NCC(N)=O` [TERLIPRESSIN], the half-life [7] was 54 min.
`CSCC[C@@H]1NC(=O)[C@H](CC(C)C)NC(=O)[C@H](CCCNC(=N)N)NC(=O)[C@H](CO)NC(=O)[C@@H]2CSSC[C@@H]3NC(=O)[C@H](CO)NC(=O)CNC(=O)[C@H]([C@@H](C)O)NC(=O)[C@H](CSSC[C@H](N)C(=O)N[C@@H](CCCCN)C(=O)NCC(=O)N[C@@H](CCCCN)C(=O)NCC(=O)N[C@@H](C)C(=O)N[C@@H](CCCCN)C(=O)N2)NC(=O)[C@H](CSSC[C@@H](C(N)=O)NC(=O)[C@H](CCCCN)NC(=O)CNC(=O)[C@H](CO)NC(=O)[C@H](CCCNC(=N)N)NC3=O)NC(=O)[C@H](CC(=O)O)NC(=O)[C@H](Cc2ccc(O)cc2)NC1=O` [ZICONOTIDE] gave a fraction unbound at 0.2 ug/ml [8] of 0.5.
With LIXISENATIDE the “beta t1/2” value [9] was 3 h.
Compound NESIRITIDE has a t1/2 [10] of 18 min.
TESAMORELIN showed a t1/2 [1] of 26 min and an F [11] of under 4%.
Work on VOSORITIDE yielded a t1/2 [1] of 21 min.
